What was measured:
soybean = assay: Test B pre/postemergence soybean; assay type: in vivo, Glycine max
In short: (§1)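 Response is a visual 0-to-10 score relative to untreated plants, where 0 means no effect and 10 means complete control, taken twelve to sixteen days after application. Treatments went onto soil at planting and onto foliage of 1- to 4-leaf plants, using a surfactant-containing non-phytotoxic solvent.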

blackgrass = assay: Test B pre/postemergence blackgrass; assay type: in vivo, Alopecurus myosuroides
In short: as §1

cocklebur = assay: Test B pre/postemergence cocklebur; assay type: in vivo, Xanthium strumarium
In short: as §1

wild oat = assay: Test B pre/postemergence wild oat; assay type: in vivo, Avena fatua
In short: as §1

bedstraw = assay: Test B pre/postemergence bedstraw; assay type: in vivo, Galium aparine
In short: as §1

purple nutsedge = assay: Test B pre/postemergence purple nutsedge; assay type: in vivo, Cyperus rotundus; settings: for Plant response rating, Nutsedge: scale of 0 to 10 where 0 is no effect and 10 is complete control
In short: as §1

velvetleaf = assay: Test B pre/postemergence velvetleaf; assay type: in vivo, Abutilon theophrasti
In short: as §1

surinam grass = assay: Test B pre/postemergence surinam grass; assay type: in vivo, Brachiaria decumbens
In short: as §1

corn = assay: Test B pre/postemergence corn; assay type: in vivo, Zea mays
In short: as §1

giant foxtail = assay: Test B pre/postemergence giant foxtail; assay type: in vivo, Setaria faberii
In short: as §1

pigweed = assay: Test B pre/postemergence pigweed; assay type: in vivo, Amaranthus retroflexus
In short: as §1

rape = assay: Test B pre/postemergence rape; assay type: in vivo, Brassica napus
In short: as §1

crabgrass = assay: Test B pre/postemergence crabgrass; assay type: in vivo, Digitaria sanguinalis
In short: as §1

wheat = assay: Test B pre/postemergence wheat; assay type: in vivo, Triticum aestivum
In short: as §1

morningglory = assay: Test B pre/postemergence morningglory; assay type: in vivo, Ipomoea hederacea
In short: as §1

sugar beet = assay: Test B pre/postemergence sugar beet; assay type: in vivo, Beta vulgaris
In short: as §1

[1] = Postemergence, Rate 62 g/ha, scale of 0 to 10, 0 is no effect, 10 is complete control
[2] = Postemergence, Rate 500 g/ha, scale of 0 to 10 where 0 is no effect and 10 is complete control
[3] = Preemergence, Rate 62 g/ha, scale 0 to 10 (0 no effect, 10 complete control)
[4] = Preemergence, Rate 125 g/ha, scale 0 to 10, 0 is no effect, 10 is complete control
[5] = Preemergence, Rate 500 g/ha, scale of 0 to 10 where 0 is no effect and 10 is complete control
[6] = Rate 250 g/ha, Postemergence, scale of 0 to 10 where 0 is no effect and 10 is complete control
[7] = Postemergence, Rate 125 g/ha, scale 0 to 10, 0 is no effect, 10 is complete control

COCCOCn1c(=O)on(C(=O)N(c2ccccc2)C(C)C)c1=O [Compound 564]
Soybean plant response rating (soybean; [1]): 0
Plant response rating, Soybean (soybean; [2]): 5
Soybean plant response rating (soybean; [3]): 0
Soybean plant response rating (soybean; [4]): 0
Soybean plant response rating (0 to 10 scale) (soybean; Preemergence, Rate 250 g/ha): 4
Soybean plant response rating (soybean; [5]): 8
Plant response rating, Soybean (soybean; [6]): 5
Blackgrass plant response rating (blackgrass; [1]): 0
Blackgrass plant response rating (blackgrass; [7]): 4
Plant response rating, Blackgrass (blackgrass; [2]): 4
Blackgrass plant response rating (blackgrass; [3]): 0
Blackgrass plant response rating (blackgrass; [4]): 5
Blackgrass plant response rating (0 to 10 scale) (blackgrass; Preemergence, Rate 250 g/ha): 5
Blackgrass plant response rating (blackgrass; [5]): 9
Plant response rating, Blackgrass (blackgrass; [6]): 4
Cocklebur plant response rating (cocklebur; [1]): 0
Cocklebur plant response rating (cocklebur; [7]): 0
Plant response rating, Cocklebur (cocklebur; [2]): 2
Cocklebur plant response rating (cocklebur; [3]): 0
Cocklebur plant response rating (cocklebur; [4]): 0
Cocklebur plant response rating (0 to 10 scale) (cocklebur; Preemergence, Rate 250 g/ha): 0
Cocklebur plant response rating (cocklebur; [5]): 0
Plant response rating, Cocklebur (cocklebur; [6]): 0
Wild oats plant response rating (wild oat; [1]): 0
Plant response rating, Wild oats (wild oat; [2]): 2
Wild oats plant response rating (wild oat; [3]): 0
Wild oats plant response rating (wild oat; [4]): 0
Wild oats plant response rating (0 to 10 scale) (wild oat; Preemergence, Rate 250 g/ha): 4
Wild oats plant response rating (wild oat; [5]): 7
Bedstraw plant response rating (bedstraw; [1]): 0
Plant response rating, Bedstraw (bedstraw; [2]): 0
Bedstraw plant response rating (bedstraw; [3]): 0
Bedstraw plant response rating (bedstraw; [4]): 0
Bedstraw plant response rating (0 to 10 scale) (bedstraw; Preemergence, Rate 250 g/ha): 0
Bedstraw plant response rating (bedstraw; [5]): 0
Nutsedge plant response rating (purple nutsedge; [1]): 0
Plant response rating, Nutsedge (purple nutsedge; Postemergence, Rate 500 g/ha): 0
Nutsedge plant response rating (purple nutsedge; [3]): 0
Nutsedge plant response rating (purple nutsedge; [4]): 0
Plant response rating, Nutsedge (purple nutsedge; Rate 250 g/ha, Postemergence): 0
Velvetleaf plant response rating (velvetleaf; [1]): 0
Plant response rating, Velvetleaf (velvetleaf; [2]): 3
Velvetleaf plant response rating (velvetleaf; [3]): 0
Velvetleaf plant response rating (velvetleaf; [4]): 2
Velvetleaf plant response rating (0 to 10 scale) (velvetleaf; Preemergence, Rate 250 g/ha): 6
Velvetleaf plant response rating (velvetleaf; [5]): 8
Plant response rating, Velvetleaf (velvetleaf; [6]): 2
B. signalgrass plant response rating (surinam grass; [1]): 0
Plant response rating, B. signalgrass (surinam grass; [2]): 8
B. signalgrass plant response rating (surinam grass; [3]): 2
B. signalgrass plant response rating (surinam grass; [4]): 6
B. signalgrass plant response rating (0 to 10 scale, 0 is no effect, 10 is complete control) (surinam grass; Preemergence, Rate 250 g/ha): 6
B. signalgrass plant response rating (surinam grass; [5]): 7
Plant response rating, B. signalgrass (surinam grass; [6]): 3
Corn plant response rating (corn; [1]): 0
Corn plant response rating (corn; [7]): 0
Plant response rating, Corn (corn; [2]): 6
Corn plant response rating (corn; [3]): 2
Corn plant response rating (corn; [4]): 4
Corn plant response rating (0 to 10 scale) (corn; Preemergence, Rate 250 g/ha): 4
Corn plant response rating (corn; [5]): 9
Plant response rating, Corn (corn; [6]): 0
Giant foxtail plant response rating (giant foxtail; [1]): 2
Giant foxtail plant response rating (giant foxtail; [7]): 3
Plant response rating, Giant foxtail (giant foxtail; [2]): 9
Giant foxtail plant response rating (giant foxtail; [3]): 9
Giant foxtail plant response rating (giant foxtail; [4]): 9
Giant foxtail plant response rating (0 to 10 scale) (giant foxtail; Preemergence, Rate 250 g/ha): 9
Giant foxtail plant response rating (giant foxtail; [5]): 9
Plant response rating, Giant foxtail (giant foxtail; [6]): 7
Redroot pigweed plant response rating (pigweed; [1]): 3
Plant response rating, Redroot pigweed (pigweed; [2]): 3
Redroot pigweed plant response rating (pigweed; [3]): 0
Redroot pigweed plant response rating (pigweed; [4]): 0
Redroot pigweed plant response rating (0 to 10 scale) (pigweed; Preemergence, Rate 250 g/ha): 3
Redroot pigweed plant response rating (pigweed; [5]): 3
Plant response rating, Redroot pigweed (pigweed; [6]): 3
Rape plant response rating (rape; [1]): 0
Rape plant response rating (rape; [7]): 0
Plant response rating, Rape (rape; [2]): 2
Rape plant response rating (rape; [3]): 0
Rape plant response rating (rape; [4]): 0
Rape plant response rating (0 to 10 scale) (rape; Preemergence, Rate 250 g/ha): 0
Rape plant response rating (rape; [5]): 3
Plant response rating, Rape (rape; [6]): 2
Crabgrass plant response rating (crabgrass; [1]): 2
Crabgrass plant response rating (crabgrass; [7]): 3
Plant response rating, Crabgrass (crabgrass; [2]): 9
Crabgrass plant response rating (crabgrass; [3]): 7
Crabgrass plant response rating (crabgrass; [4]): 8
Crabgrass plant response rating (0 to 10 scale) (crabgrass; Preemergence, Rate 250 g/ha): 9
Crabgrass plant response rating (crabgrass; [5]): 9
Plant response rating, Crabgrass (crabgrass; [6]): 8
Wheat plant response rating (wheat; [1]): 0
Plant response rating, Wheat (wheat; [2]): 2
Wheat plant response rating (wheat; [3]): 0
Wheat plant response rating (wheat; [4]): 6
Wheat plant response rating (0 to 10 scale) (wheat; Preemergence, Rate 250 g/ha): 7
Wheat plant response rating (wheat; [5]): 7
Morningglory plant response rating (morningglory; [1]): 5
Morningglory plant response rating (morningglory; [7]): 7
Plant response rating, Morningglory (morningglory; [2]): 10
Morningglory plant response rating (morningglory; [3]): 0
Morningglory plant response rating (morningglory; [4]): 2
Morningglory plant response rating (0 to 10 scale) (morningglory; Preemergence, Rate 250 g/ha): 2
Morningglory plant response rating (morningglory; [5]): 4
Plant response rating, Morningglory (morningglory; [6]): 10
Sugarbeets plant response rating (sugar beet; [1]): 0
Plant response rating, Sugarbeets (sugar beet; [2]): 2
Sugarbeets plant response rating (sugar beet; [3]): 2
Sugarbeets plant response rating (sugar beet; [4]): 2
Sugarbeets plant response rating (0 to 10 scale) (sugar beet; Preemergence, Rate 250 g/ha): 3
Sugarbeets plant response rating (sugar beet; [5]): 3
Plant response rating, Sugarbeets (sugar beet; [6]): 2

Source: patent US6737383B1, “Herbicidal oxadiazolidines” (priority 1999, dated 2004)
